Measured values published in patent US20120177701A1, “COMPOSITIONS COMPRISING IMMUNOSTIMULATORY NUCLEIC ACIDS AND RELATED METHODS” (priority 2010, published 2012).

How the values were obtained:
[1] = system: HEK-Blue™ Null; assay type: cell-based, human
[2] = molecular target: T1, human TLR3 (Homo sapiens, UniProt O15455); assay type: cell-based
T1 construct: expressed in transfected cells; host or cells: HEK-Blue hTLR3 (HEK293-derived reporter line)
T1 sequence (O15455 24-904): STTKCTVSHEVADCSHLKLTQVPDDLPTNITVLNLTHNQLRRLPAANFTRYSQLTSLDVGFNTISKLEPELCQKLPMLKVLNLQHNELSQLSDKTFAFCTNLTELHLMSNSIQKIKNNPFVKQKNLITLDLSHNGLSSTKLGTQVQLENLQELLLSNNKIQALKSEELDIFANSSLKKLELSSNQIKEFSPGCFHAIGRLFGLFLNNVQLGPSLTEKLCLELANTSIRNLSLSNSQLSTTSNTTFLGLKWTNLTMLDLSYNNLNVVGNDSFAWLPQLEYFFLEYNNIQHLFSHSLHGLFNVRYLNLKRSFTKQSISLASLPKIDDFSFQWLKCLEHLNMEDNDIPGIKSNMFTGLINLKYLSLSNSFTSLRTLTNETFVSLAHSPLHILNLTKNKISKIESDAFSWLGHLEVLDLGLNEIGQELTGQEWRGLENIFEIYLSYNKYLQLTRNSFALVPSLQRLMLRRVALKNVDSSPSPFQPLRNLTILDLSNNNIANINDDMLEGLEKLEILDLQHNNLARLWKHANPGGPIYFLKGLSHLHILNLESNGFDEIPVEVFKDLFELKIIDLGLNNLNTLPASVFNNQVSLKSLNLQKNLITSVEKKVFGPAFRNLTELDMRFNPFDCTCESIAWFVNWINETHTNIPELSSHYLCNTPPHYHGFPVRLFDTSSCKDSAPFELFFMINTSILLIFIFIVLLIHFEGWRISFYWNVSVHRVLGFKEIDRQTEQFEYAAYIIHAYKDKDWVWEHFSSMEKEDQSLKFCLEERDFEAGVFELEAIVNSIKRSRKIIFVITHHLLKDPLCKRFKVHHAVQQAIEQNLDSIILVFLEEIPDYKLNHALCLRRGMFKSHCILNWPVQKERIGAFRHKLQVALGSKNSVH

[3] = molecular target: T2, human TLR9 (Homo sapiens, UniProt Q9NR96); assay type: cell-based
T2 construct: expressed in transfected cells; host or cells: HEK-Blue hTLR9 (HEK293-derived reporter line)
T2 sequence (Q9NR96 26-1032): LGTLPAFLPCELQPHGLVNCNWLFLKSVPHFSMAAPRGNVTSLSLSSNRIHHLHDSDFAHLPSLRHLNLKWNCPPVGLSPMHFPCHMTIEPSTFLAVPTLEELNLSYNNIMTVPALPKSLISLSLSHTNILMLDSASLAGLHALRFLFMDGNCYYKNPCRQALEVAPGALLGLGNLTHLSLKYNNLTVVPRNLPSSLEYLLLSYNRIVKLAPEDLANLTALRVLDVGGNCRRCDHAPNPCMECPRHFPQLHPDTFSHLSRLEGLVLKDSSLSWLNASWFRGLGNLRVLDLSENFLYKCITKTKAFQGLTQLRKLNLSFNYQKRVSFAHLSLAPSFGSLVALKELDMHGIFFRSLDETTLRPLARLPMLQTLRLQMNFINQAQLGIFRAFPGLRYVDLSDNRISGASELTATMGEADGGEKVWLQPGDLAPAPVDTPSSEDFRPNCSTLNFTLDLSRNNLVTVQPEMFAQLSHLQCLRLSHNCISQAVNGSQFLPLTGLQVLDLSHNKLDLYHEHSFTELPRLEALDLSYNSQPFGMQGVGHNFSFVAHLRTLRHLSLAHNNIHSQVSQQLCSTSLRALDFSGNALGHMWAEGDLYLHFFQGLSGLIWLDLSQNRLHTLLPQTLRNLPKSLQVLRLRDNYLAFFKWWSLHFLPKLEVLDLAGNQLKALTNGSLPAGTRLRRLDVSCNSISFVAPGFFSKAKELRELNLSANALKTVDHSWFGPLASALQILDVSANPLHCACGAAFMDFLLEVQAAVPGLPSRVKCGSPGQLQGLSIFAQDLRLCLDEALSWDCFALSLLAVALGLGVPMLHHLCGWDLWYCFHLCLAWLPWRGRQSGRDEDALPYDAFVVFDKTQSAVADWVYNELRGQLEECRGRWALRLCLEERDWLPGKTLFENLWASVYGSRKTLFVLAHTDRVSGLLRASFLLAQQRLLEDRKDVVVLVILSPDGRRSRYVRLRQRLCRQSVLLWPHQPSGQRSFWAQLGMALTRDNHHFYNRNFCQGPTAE

[4] = system: J774 murine macrophages; assay: TNF-α induction in mouse macrophage cell line J774; assay type: cell-based
Protocol: Induction of TNF-α by macrophages is a hallmark of human TLR8 activation (Forsbach et al., 2008, J. Immunol., 180:3729-38; Ghosh et al., 2007, Int. Immunopharmacol., 7:1111-21; Gorden et al., 2005, J. Immunol., 174:1259-68). […] In the following experiment mouse macrophage cell line, J774, has been transfected by test ribonucleotides as described above for HEK-Blue™ hTLR8 cells (with the exception that 2-10×10^4 cells/well were used) and TNF-α was measured in culture supernatants at 16-20 hours after transfection.

[5] = system: murine splenocytes; assay: Immune cell activation (CD69 expression, FACS) in murine splenocytes; assay type: cell-based, mouse; conditions: 20 hours
Protocol: In addition, upon removal of the supernatant at 20 hours post-incubation, the mouse cells were stained for the following cell markers: GR1, F4/80, CD11c, CD220, CD3, Ly49b, and CD69, and analyzed by FACS. Different immune cell populations were distinguished as follows: macrophages (F4/80^+/GR1^−); plasmacytoid dendritic cells or pDC (CD11c^+/CD220^+); B cells (CD220^+/CD11c^−); NK (CD3^−/Ly49b^+); myeloid DC or mDC ([…]); granulocytes (eosinophils) (GR1^+high/F4/80^−); T cells (CD3^+); and NKT cells (CD3^+/Ly49b^+). All immune cell populations were quantified by the expression of CD69 (am early activation marker).

[6] = system: primary human lymphocytes; assay type: cell-based; conditions: 20 hours
[7] = 200 nM, compared with R848 1 μM

5′-GAGAUGUUAUUUUGUUUUUAAUAUUUC-3′ (phosphorothioate backbone, further chemistry not given here) [SL-0001, phosphorothioated 27-ribonucleotide from the 3′-terminus of Chikungunya virus strain TSI-GSD-218, bases 12010-12036]
activation of SEAP expression [1]: No activation of SEAP expression | activation of SEAP expression [2]: No activation of SEAP expression | activation of SEAP expression [3]: No activation of SEAP expression | TNF-α induction, described in words [4]: strongly induced TNF-α expression, to the level seen when R-0006 was used | activation of immune cell populations (CD69 expression) ([5]; 200 nM DOTAP-complexed): induced activation in most of the tested immune cell populations | immune cell activation compared with R848 and control oligonucleotide ([5]; 200 nM DOTAP-complexed, R848 1 μM): at least comparable to that generated by treatment with 1 μM of R848, and usually exceeded the effects exhibited by the control oligonucleotide R-0006 | NKT cell activation (CD69) [5, 7]: exceeded the activation observed for R848 | T cell activation (CD69) [5, 7]: exceeded the activation observed for R848 | granulocyte activation (CD69) [5, 7]: exceeded the activation observed for R848 | macrophage activation (CD69) ([5]; 200 nM, compared with R-0006): especially higher than the activation observed for R-0006 | 11-12(p40) induction [6]: significant levels | IFNγ induction [6]: significant levels | IL-4 induction (Th2-type cytokine) [6]: insignificant | IL-5 induction (Th2-type cytokine) [6]: insignificant | IL-6 induction [6]: significant levels | IL-10 induction [6]: significant levels | IL-23 induction [6]: significant levels | TNFα induction [6]: significant levels
